US20250382556A1, “MODULATION OF THE BRANCHED-CHAIN METABOLITE CONTENT OF FRUITS AND VEGETABLES” (BOARD OF TRUSTEES OF MICHIGAN STATE UNIVERSITY, priority 2024, published 2025)

Test system: apple peel
Assay: Free amino acid content of apple peel via UPLC-MS/MS after AHAS inhibitor treatment
Assay type: in vivo, Malus x domestica Borkh.
Parameters: key to free asparagine content compared to control / free aspartate content compared to control / free cysteine content compared to control / free glutamate content compared to control / free glutamine content compared to control / free glycine content compared to control / free histidine content compared to control / free lysine content compared to control / free methionine content compared to control / free phenylalanine content compared to control / free serine content compared to control / free threonine content compared to control / free tryptophan content compared to control / free tyrosine content compared to control / free valine content compared to control / total free amino acid content compared to control / free alanine content compared to control / free arginine content compared to control: —: Dash indicates no significant difference between treatments
Settings: for free alanine content compared to control / free arginine content compared to control / free asparagine content compared to control / free aspartate content compared to control / free cysteine content compared to control / free glutamate content compared to control / free glutamine content compared to control / free glycine content compared to control / free histidine content compared to control / free isoleucine content compared to control / free leucine content compared to control / free lysine content compared to control / free methionine content compared to control / free phenylalanine content compared to control / free serine content compared to control / free threonine content compared to control / free tryptophan content compared to control / free tyrosine content compared to control / free valine content compared to control / total free amino acid content compared to control: 1 mM daily
Experimental: Whole apple fruit, freshly harvested and at an early stage of ripening (‘ripening’), were held at room temperature (22° C.) and rubbed daily with 3 mL of a freshly made 1mM solution of the inhibitor rimsulfuron (N-((4,6-dimethoxypyrimidin-2-yl)aminocarbonyl)-3-(ethylsulfonyl)-2-pyridinesulfonamide, made from DuPont MATRIX® SG, 25% w/w active ingredient; 0.1% Tween 20) or water solution containing 0.1% Tween 20 before preparation with further treatments. Flowering quince fruit were smaller than the apple fruit and had 2 mL of the control and treatment solutions applied daily at 22° C. ‘Gala’, ‘Empire’, and ‘Jonagold’ apple fruit were treated for four, nine, and seven days before further preparation, respectively. Flowering quince fruit were treated for six days before analysis. Headspace volatile emissions were monitored for three or four representative fruits during the incubation/treatment period to determine appropriate times for further treatments. During method testing, 1 mM solutions of the imidazolinone imazamox was also assessed with apple fruit (2-[4,5-dihydro-4-methyl-4-(1-methylethyl)-5-oxo-1H-imidazol-2-yl]-5-(methoxymethyl)-3-pyridinecarboxylic acid, made from RAPTOR®, 12.1% w/w active ingredient; 0.1% Tween 20).
After volatile analysis, apple peel disks, collected peel of flowering quince, and ‘Valery’ pulp section samples were held at −80° C. for further amino acid analysis.
Frozen samples were ground to a powder in liquid nitrogen-chilled mortar and pestles. About 500 mg of tissue was vortexed for 10 sec in 2 mL of room temperature (22° C.) extraction solution (1:1:1 water:acetonitrile:ethanol, v/v/v) spiked with 2 nmoles of U-^13C,^15N labeled amino acids (MilliporeSigma) as internal standards and heated for 15 min in a 65° C. water bath. Extracts were briefly chilled on ice before centrifugation at 4400×g for 15 min at 4° C. The supernatant was filtered by centrifugation (0.2 μm nylon centrifugal filter; Costar, Corning) at 21000×g for 5 min at room temperature. 10 μL of the filtrate was transferred to an autosampler vial and diluted 100-fold with 990 μL of 10.1 mM perfluorohexanoic acid (PFHA) spiked with […] of internal standard. Thus the final concentration of internal standard was ˜2 μM.
An amino acid standard series was prepared from a premade mixture (MilliporeSigma, AAS18) that contained equal molar amounts of cystine and all 20 proteinogenic amino acids save for tryptophan, asparagine, glutamine, and cysteine. An equal molar mixture of tryptophan, asparagine, glutamine, and cysteine was subsequently prepared. To avoid dilution errors or artefacts from differing buffers, these amino acid stocks were aliquoted and desiccated such that a five-part standard series ranging from 250 μM to 25 nM would be produced upon resuscitation with 10 μL of spiked extraction buffer and 990 μL spiked PFHA solution.
Samples and amino acids were held overnight at −20° C. before analysis. Amino acids were analyzed with a Xevo TQ-S Micro UPLC (H-Class)-MS/MS (Waters) at the Michigan State University Mass Spectrometry and Metabolomics Core. Conditions were as follows. HPLC column: Acquirt UPLC HSS T3, 2.1×100 mm, 1.7 μm particle size (Waters), with a 0.2 μm pre-column filter (Waters). Mobile phase: A) 10 mM PFHA in water, B) acetonitrile. LC gradient: linear gradient, slope setting=6, flow rate=0.3 mL·min^−1, step 1) 0 min, 100% A, 0% B, 2) 1 min, 100% A, 0% B, 3) 8 min, 35% A, 65% B, 4) 8.01 min, 10% A, 90% B, 5) 9 min, 10% A, 90% B, 6) 9.01 min, 100% A, 0% B, 7) 13 min, 100% A, 0% B. Column temp: 40° C. Autosampler temp: 10° C. Injection volume: 10 μL. Tune parameters: electrospray ionization, standard ESI probe, capillary voltage=+1.0 kV, source temp=120° C., desolvation temp=350° C., desolvation gas=800 L·hr^−1, cone gas=40 L·hr^−1. MS collection was split into three phases and were adjusted after checking the retention time of several samples; however proline was missed for apple and flowering quince samples. […]

[1] = ripening Empire apple peel, nine days
[2] = ripening Gala apple peel, four days
[3] = ripening Jonagold apple peel, seven days

## CCS(=O)(=O)c1cccnc1S(=O)(=O)NC(=O)Nc1nc(OC)cc(OC)n1 [rimsulfuron, N-((4,6-dimethoxypyrimidin-2-yl)aminocarbonyl)-3-(ethylsulfonyl)-2-pyridinesulfonamide]
[1]
  free alanine content compared to control: —
  free arginine content compared to control: —
  free asparagine content compared to control: —
  free aspartate content compared to control: —
  free cysteine content compared to control: 261.5 ± 32.5%
  free glutamate content compared to control: —
  free glutamine content compared to control: —
  free glycine content compared to control: —
  free histidine content compared to control: —
  free isoleucine content compared to control: 3.3 ± 0.7%
  free leucine content compared to control: 422.8 ± 100.1%
  free lysine content compared to control: —
  free methionine content compared to control: 212.7 ± 26.8%
  free phenylalanine content compared to control: —
  free serine content compared to control: —
  free threonine content compared to control: —
  free tryptophan content compared to control: —
  free tyrosine content compared to control: —
  free valine content compared to control: —
  total free amino acid content compared to control: —
[2]
  free alanine content compared to control: 273.4 ± 27.4%
  free arginine content compared to control: —
  free asparagine content compared to control: —
  free aspartate content compared to control: 231.8 ± 18.0%
  free cysteine content compared to control: —
  free glutamate content compared to control: 146.3 ± 5.6%
  free glutamine content compared to control: 250.7 ± 33.5%
  free glycine content compared to control: —
  free histidine content compared to control: —
  free isoleucine content compared to control: 16.4 ± 6.3%
  free leucine content compared to control: 214.4 ± 42.2%
  free lysine content compared to control: —
  free methionine content compared to control: —
  free phenylalanine content compared to control: —
  free serine content compared to control: 300.1 ± 27.7%
  free threonine content compared to control: 182.3 ± 14.2%
  free tryptophan content compared to control: —
  free tyrosine content compared to control: —
  free valine content compared to control: —
  total free amino acid content compared to control: 191.5 ± 20.4%
Ripening Gala, Empire, Jonagold peels
  valine following treatment: unaffected
[3]
  free alanine content compared to control: —
  free arginine content compared to control: —
  free asparagine content compared to control: —
  free aspartate content compared to control: —
  free cysteine content compared to control: 410.6 ± 49.6%
  free glutamate content compared to control: —
  free glutamine content compared to control: —
  free glycine content compared to control: —
  free histidine content compared to control: —
  free isoleucine content compared to control: 4.1 ± 1.3%
  free leucine content compared to control: 393.2 ± 74.4%
  free lysine content compared to control: —
  free methionine content compared to control: 218.3 ± 31.0%
  free phenylalanine content compared to control: —
  free serine content compared to control: 191.9 ± 32.1%
  free threonine content compared to control: —
  free tryptophan content compared to control: —
  free tyrosine content compared to control: —
  free valine content compared to control: —
  total free amino acid content compared to control: —
Ripening fruit of the three cultivars (Gala, Empire, Jonagold), on average
  reduction of isoleucine in the peels: 92.1%
Three ripening cultivars, on average
  increase of leucine content: 3.4 fold
